Test results reported in patent US10577363B2, “Substituted piperidine compounds” (EPIZYME, INC., priority 2014, dated 2020).
pIC50: −log10 of the molar value. Counter-ions that a name gives are not always drawn.

What was measured:
SMYD3 [1] = molecular target: T1, SMYD3 (Homo sapiens (Human), UniProt Q9H7B4); assay: SMYD3 biochemical assay (SPA, 3H-SAM methylation of MEKK2 protein substrate); conditions: for IC50: read-out: SMYD3 Biochem IC50 (μM)*
How it was run: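 Methylation of N-terminally GST-tagged MEKK2 by untagged full-length human SMYD3, using 3H-SAM, in pH 8.0 Tris buffer with TCEP, BSG and Tween 20; enzyme and compound sat 30 min at room temperature before substrate addition. Stopped with 100 uM (final) cold SAM; incorporation read by scintillation proximity as dpm/cpm.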

SMYD3 [2] = molecular target: T1, SMYD3; assay: SMYD3 cell assay (Trimethyl-MEKK2 In-Cell Western in 293T/17 cells); format: cell-based; conditions: for IC50: read-out: SMYD3 Cell IC50 (μM)*
How it was run: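 In-Cell Western readout: methanol-fixed cells stained for trimethyl-MEKK2 and flag tag, ratio per well normalized to DMSO and background controls.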

[3] = Table 2A, read-out: SMYD3 Biochem IC50
[4] = Table 2A, read-out: SMYD3 Cell IC50
[5] = average of n = 1 to n = 50, read-out: SMYD3 Biochem IC50
[6] = average of n = 1 to n = 50, read-out: SMYD3 Cell IC50

T1 sequence (Q9H7B4 whole entry): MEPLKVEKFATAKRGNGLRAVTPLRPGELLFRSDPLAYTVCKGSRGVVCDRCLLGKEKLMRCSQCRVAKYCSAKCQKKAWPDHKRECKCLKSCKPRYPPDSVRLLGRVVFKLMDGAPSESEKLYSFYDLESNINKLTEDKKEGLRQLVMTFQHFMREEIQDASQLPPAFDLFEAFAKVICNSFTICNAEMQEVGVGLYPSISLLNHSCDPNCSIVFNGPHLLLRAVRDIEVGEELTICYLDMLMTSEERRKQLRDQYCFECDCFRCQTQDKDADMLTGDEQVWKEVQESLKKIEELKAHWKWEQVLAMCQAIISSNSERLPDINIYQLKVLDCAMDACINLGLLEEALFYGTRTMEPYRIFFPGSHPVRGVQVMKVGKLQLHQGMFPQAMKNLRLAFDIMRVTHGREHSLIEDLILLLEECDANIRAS

Row | pIC50 (SMYD3 [1]; [5]) | pIC50 (SMYD3 [2]; [6]) | SMILES | pIC50 (SMYD3 [1]; read-out: SMYD3 Biochem IC50*) | pIC50 (SMYD3 [2]; read-out: SMYD3 Cell IC50*) | other results
1 |  |  | CN(CCCN1CCCC1)C1CCN(S(=O)(=O)N2[C@@H]3CC[C@H]2C[C@@H](NC(=O)c2cc(C4CC4)on2)C3)CC1 [compound 874, 5-cyclopropyl-N-((1R,3r,5S)-8-((4-(methyl(3-(pyrrolidin-1-yl)propyl)amino)piperidin-1-yl)sulfonyl)-8-azabicyclo[3.2.1]octan-3-yl)isoxazole-3-carboxamide] | 8.01 | 6.63 | 
2 |  |  | O=C(N[C@H]1C[C@H]2CC[C@@H](C1)N2S(=O)(=O)N1CCC(NCCCO)CC1)c1cc(C2CC2)on1 [compound 845, 5-cyclopropyl-N-((1R,3r,5S)-8-((4-((3-hydroxypropyl)amino)piperidin-1-yl)sulfonyl)-8-azabicyclo[3.2.1]octan-3-yl)isoxazole-3-carboxamide] | 8.28 | 7.06 | 
3 |  |  | C[C@H]1C[C@@H](NC(=O)c2cc(C3CC3)on2)CCN1S(=O)(=O)N1CCC(N(C)C)CC1 [compound 545, 5-cyclopropyl-N-((2S,4S)-1-((4-(dimethylamino)piperidin-1-yl)sulfonyl)-2-methylpiperidin-4-yl)isoxazole-3-carboxamide] |  |  | pIC50 (SMYD3 [1]; [3]): 8.70; pIC50 (SMYD3 [2]; [4]): 7.40
4 |  |  | NCCCS(=O)(=O)N1CC[C@@H](NC(=O)c2cc(C3CC3)on2)C[C@H]1Cc1ccccc1 [compound 390, N-((2R,4R)-1-((3-aminopropyl)sulfonyl)-2-benzylpiperidin-4-yl)-5-cyclopropylisoxazole-3-carboxamide] |  |  | IC50 (SMYD3 [1]): 0.464 µM; IC50 (SMYD3 [2]; 293T/17 cells): 2.97 µM
5 | 6.75 | 5.81 | C[C@H]1C[C@@H](NC(=O)c2cc(C3CC3)on2)CCN1S(=O)(=O)CCCNc1ccccc1 [compound 697, 5-cyclopropyl-N-((2S,4S)-2-methyl-1-((3-(phenylamino)propyl)sulfonyl)piperidin-4-yl)isoxazole-3-carboxamide] |  |  | 
6 |  |  | C[C@H]1C[C@@H](NC(=O)c2cc(C3CC3)on2)CCN1S(=O)(=O)CC1CCN(C)CC1 [compound 533, 5-cyclopropyl-N-((2S,4S)-2-methyl-1-(((1-methylpiperidin-4-yl)methyl)sulfonyl)piperidin-4-yl)isoxazole-3-carboxamide] |  |  | pIC50 (SMYD3 [1]; [3]): 9.00; pIC50 (SMYD3 [2]; [4]): 7.51
7 |  |  | CC1CC(CS(=O)(=O)N2[C@@H]3CC[C@H]2C[C@@H](NC(=O)c2cc(C4CC4)on2)C3)CC(C)N1 (stereo partly drawn) [compound 857, 5-cyclopropyl-N-((1R,3r,5S)-8-(((2,6-dimethylpiperidin-4-yl)methyl)sulfonyl)-8-azabicyclo[3.2.1]octan-3-yl)isoxazole-3-carboxamide] | 8.15 | 6.89 | 
8 | 6.14 | 5.69 | C[C@H]1C[C@@H](NC(=O)c2cc(C3CC3)on2)CCN1S(=O)(=O)N1CCN(C)[C@H](CCO)C1 [compound 759, 5-cyclopropyl-N-((2S,4S)-1-(((R)-3-(2-hydroxyethyl)-4-methylpiperazin-1-yl)sulfonyl)-2-methylpiperidin-4-yl)isoxazole-3-carboxamide] |  |  | 
9 |  |  | C[C@H]1C[C@@H](NC(=O)c2cc(C3CC3)on2)CCN1S(=O)(=O)CC1CCN(Cc2ccccc2)CC1 [compound 544, N-((2S,4S)-1-(((1-benzylpiperidin-4-yl)methyl)sulfonyl)-2-methylpiperidin-4-yl)-5-cyclopropylisoxazole-3-carboxamide] |  |  | pIC50 (SMYD3 [1]; [3]): 8.72; pIC50 (SMYD3 [2]; [4]): 7.35
10 |  |  | O=C(N[C@H]1C[C@H]2CC[C@@H](C1)N2S(=O)(=O)[C@H]1CC[C@@H](NCCN2CCOCC2)CC1)c1cc(C2CC2)on1 [compound 920, 5-cyclopropyl-N-((1R,3R,5S)-8-(((1s,4S)-4-((2-morpholinoethyl)amino)cyclohexyl)sulfonyl)-8-azabicyclo[3.2.1]octan-3-yl)isoxazole-3-carboxamide] | 7.58 | 6.30 | 
11 |  |  | CCc1cc(C(=O)N[C@H]2C[C@H]3CC[C@@H](C2)N3S(=O)(=O)CC2CCNCC2)no1 [Cpd. No. 562, 5-ethyl-N-((1R,3r,5S)-8-(piperidin-4-ylmethylsulfonyl)-8-aza-bicyclo[3.2.1]octan-3-yl)isoxazole-3-carboxamide] |  |  | pIC50 (SMYD3 [1]; [3]): 8.28; pIC50 (SMYD3 [2]; [4]): 7.21
12 |  |  | O=C(N[C@H]1C[C@H]2CC[C@@H](C1)N2S(=O)(=O)N1CCC(Nc2ncccn2)CC1)c1cc(C2CC2)on1 [compound 958, 5-cyclopropyl-N-((1R,3r,5S)-8-((4-(pyrimidin-2-ylamino)piperidin-1-yl)sulfonyl)-8-azabicyclo[3.2.1]octan-3-yl)isoxazole-3-carboxamide] | 7.12 | 6.31 | 
13 |  |  | O=C(N[C@H]1C[C@H]2CC[C@@H](C1)N2S(=O)(=O)N1CC2CCC(C1)N2Cc1ccccc1)c1cc(C2CC2)on1 [compound 904, N-((1R,3r,5S)-8-((8-benzyl-3,8-diazabicyclo[3.2.1]octan-3-yl)sulfonyl)-8-azabicyclo[3.2.1]octan-3-yl)-5-cyclopropylisoxazole-3-carboxamide] | 7.77 | 6.40 | 
14 | 6.60 | 5.78 | C[C@H]1C[C@@H](NC(=O)c2cc(C3CC3)on2)CCN1S(=O)(=O)c1cccc(N)n1 [compound 708, N-((2S,4S)-1-((6-aminopyridin-2-yl)sulfonyl)-2-methylpiperidin-4-yl)-5-cyclopropylisoxazole-3-carboxamide] |  |  | 
15 |  |  | CN(CCN)CCS(=O)(=O)N1[C@@H]2CC[C@H]1C[C@@H](NC(=O)c1cc(C3CC3)on1)C2 [compound 598, N-((1R,3r,5S)-8-((2-((2-aminoethyl)(methyl)amino)ethyl)sulfonyl)-8-azabicyclo[3.2.1]octan-3-yl)-5-cyclopropylisoxazole-3-carboxamide] |  |  | pIC50 (SMYD3 [1]; [3]): 7.88; pIC50 (SMYD3 [2]; [4]): 6.37
16 | 6.96 | 5.86 | CNCc1ccc(C(=O)N2CC[C@@H](NC(=O)c3cc(C4CC4)on3)C[C@H]2C)cc1 [compound 675, 5-cyclopropyl-N-((2R,4R)-2-methyl-1-(4-((methylamino)methyl)benzoyl)piperidin-4-yl)isoxazole-3-carboxamide] |  |  | 
17 | 7.47 | 6.60 | C[C@H]1C[C@@H](NC(=O)c2cc(C3CC3)on2)CCN1S(=O)(=O)N1CCNC(C)(C)C1 [compound 638, 5-cyclopropyl-N-((2S,4S)-1-((3,3-dimethylpiperazin-1-yl)sulfonyl)-2-methylpiperidin-4-yl)isoxazole-3-carboxamide] |  |  | 
18 |  |  | NCCCS(=O)(=O)N1C2CCCC1CC(NC(=O)c1cc(C3CC3)on1)C2 (stereo not shown) [Cpd. No. 181, N-[9-[(3-aminopropane)sulfonyl]-9-azabicyclo[3.3.1]nonan-3-yl]-5-cyclopropyl-1,2-oxazole-3-carboxamide hydrochloride salt] |  |  | IC50 (SMYD3 [1]): 0.0927 µM; IC50 (SMYD3 [2]): 0.566 µM
19 | 6.51 | 5.69 | O=C(N[C@H]1CCN(S(=O)(=O)C2CCNC2)[C@@H](Cc2ccccc2)C1)c1cc(C2CC2)on1 (stereo partly drawn) [compound 717, N-((2S,4S)-2-benzyl-1-(pyrrolidin-3-ylsulfonyl)piperidin-4-yl)-5-cyclopropylisoxazole-3-carboxamide] |  |  | 
20 |  |  | C[C@H]1C[C@@H](NC(=O)c2cc(C3CC3)on2)CCN1S(=O)(=O)N1CCC(NCc2ccccc2)CC1 [compound 546, N-((2S,4S)-1-((4-(benzylamino)piperidin-1-yl)sulfonyl)-2-methylpiperidin-4-yl)-5-cyclopropylisoxazole-3-carboxamide] |  |  | pIC50 (SMYD3 [1]; [3]): 8.68; pIC50 (SMYD3 [2]; [4]): 7.44
21 |  |  | CNC(C)(C)c1ccc(S(=O)(=O)N2[C@@H]3CC[C@H]2C[C@@H](NC(=O)c2cc(C4CC4)on2)C3)cc1 [compound 962, 5-cyclopropyl-N-((1R,3r,5S)-8-((4-(2-(methylamino)propan-2-yl)phenyl)sulfonyl)-8-azabicyclo[3.2.1]octan-3-yl)isoxazole-3-carboxamide] | 7.09 | 6.16 | 
22 |  |  | CC(C)CNc1ccc(S(=O)(=O)N2CC[C@H](NC(=O)c3cc(C4CC4)on3)C[C@@H]2C)cn1 [compound 450, 5-cyclopropyl-N-((2S,4S)-1-((6-(isobutylamino)pyridin-3-yl)sulfonyl)-2-methylpiperidin-4-yl)isoxazole-3-carboxamide] |  |  | IC50 (SMYD3 [1]): 1.1 µM; IC50 (SMYD3 [2]; 293T/17 cells): 3.48 µM
23 |  |  | CC1CN(C)CCN1S(=O)(=O)N1[C@@H]2CC[C@H]1C[C@@H](NC(=O)c1cc(C3CC3)on1)C2 (stereo partly drawn) [compound 950, 5-cyclopropyl-N-((1R,3r,5S)-8-((2,4-dimethylpiperazin-1-yl)sulfonyl)-8-azabicyclo[3.2.1]octan-3-yl)isoxazole-3-carboxamide] | 7.28 | 6.41 | 
24 |  |  | CN1C2CCC1CN(S(=O)(=O)N1[C@@H]3CC[C@H]1C[C@@H](NC(=O)c1cc(C4CC4)on1)C3)C2 [compound 560, 5-cyclopropyl-N-((1R,3r,5S)-8-((8-methyl-3,8-diazabicyclo[3.2.1]octan-3-yl)sulfonyl)-8-azabicyclo[3.2.1]octan-3-yl)isoxazole-3-carboxamide] |  |  | pIC50 (SMYD3 [1]; [3]): 8.32; pIC50 (SMYD3 [2]; [4]): 7.29

Row | SMILES | pIC50 (SMYD3 [1]; [5]) | pIC50 (SMYD3 [2]; [6]) | pIC50 (SMYD3 [1]; read-out: SMYD3 Biochem IC50*) | pIC50 (SMYD3 [2]; read-out: SMYD3 Cell IC50*) | other results
25 | O=C(N[C@H]1C[C@H]2CC[C@@H](C1)N2S(=O)(=O)N1CCNC(Cc2ccccc2)C1)c1cc(C2CC2)on1 (stereo partly drawn) [compound 749, N-((1R,3r,5S)-8-((3-benzylpiperazin-1-yl)sulfonyl)-8-azabicyclo[3.2.1]octan-3-yl)-5-cyclopropylisoxazole-3-carboxamide] | 6.23 | 5.45 |  |  | 
26 | O=C(NC1C[C@H]2CCC[C@H](C1)N2S(=O)(=O)c1ccc(Cl)cn1)c1cc(C2CC2)on1 (stereo partly drawn) [compound 733, N-((1R,5R)-9-((5-chloropyridin-2-yl)sulfonyl)-9-azabicyclo[3.3.1]nonan-3-yl)-5-cyclopropylisoxazole-3-carboxamide] | 6.35 | 5.71 |  |  | 
